Source: the supplement of paper PMC11061612

Experiments:
Test in all cases: Bliss excess, mean over the matrix (fraction); higher = more synergy
[1] = test system: TE-9 (Esophageal Squamous Cell Carcinoma)
Outline: (§1)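 Cell lines grown in DMEM/F12 or RPMI with 10% FBS were plated in 1536-well plates and held 24 hours at 37°C, 5% CO2 before 72 hours of exposure to two-drug dose matrices, with DMSO typically at 0.2%. CellTiter-Glo 2.0 luminescence gave viability, which was converted to inhibition. Vehicle wells were set to 0 and blank wells to 1. Combination Emax is the second-highest inhibition in the matrix, and Bliss excess is the observed combination effect minus the expected EA + EB − EA·EB, where EA and EB are the single-agent effects.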

[2] = test system: RO82-W-1 (Thyroid Gland Carcinoma)
Outline: as §1

[3] = test system: TE-15 (Esophageal Squamous Cell Carcinoma)
Outline: as §1

[4] = test system: ME-1 (Acute Myeloid Leukemia)
Outline: as §1

[5] = test system: LS-180 (Colorectal Carcinoma)
Outline: as §1

[6] = test system: UM-UC-3 (Bladder Carcinoma)
Outline: as §1

[7] = test system: T98G (Glioblastoma)
Outline: as §1

[8] = test system: Calu-3 (Lung Adenocarcinoma)
Outline: as §1

Compound | Bliss excess [1] | Bliss excess [2] | Bliss excess [3] | Bliss excess [4] | Bliss excess [5] | Bliss excess [6] | Bliss excess [7] | Bliss excess [8]
N#Cc1cnc(Nc2cc(NC[C@H]3CNCCO3)c(C(F)(F)F)cn2)cn1 [SRA737] + Nc1ccn([C@@H]2O[C@H](CO)[C@@H](O)C2(F)F)c(=O)n1 [Gemcitabine] (first compound max 10 µM, 7x7, partner max 0.3 µM) | 0.0126 | -0.0037 | 0.0703 | 0.0803 | -0.0884 | 0.0629 | 0.0323 | 0.0286
N#Cc1cnc(Nc2cc(NC[C@H]3CNCCO3)c(C(F)(F)F)cn2)cn1 [SRA737] + O=c1[nH]cc(F)c(=O)[nH]1 [5-Fluorouracil] (first compound max 10 µM, 7x7, partner max 20 µM) | 0.0599 | -0.0283 | -0.0033 | -0.0532 | -0.053 | -0.0007 | -0.0277 | -0.0137
Cc1nc(-c2cn3c(n2)-c2ccc(-c4cnn(C(C)(C)C(N)=O)c4)cc2OCC3)n(C(C)C)n1 [Taselisib] + O=C(Nc1ccc2[nH]nc(-c3ccncc3)c2c1)[C@@H]1CCN(CC(=O)N2CCN(c3ccc(-c4ncccn4)cc3)CC2)C1 [SCH772984] (first compound max 10 µM, 7x7, partner max 5 µM) | 0.0303 | 0.0009 | -0.0011 | 0.0001 | 0.0776 | 0.0679 | 0.0838 | -0.0287
CC1(C)CCC(CN2CCN(c3ccc(C(=O)NS(=O)(=O)c4ccc(NCC5CCOCC5)c([N+](=O)[O-])c4)c(Oc4cnc5[nH]ccc5c4)c3)CC2)=C(c2ccc(Cl)cc2)C1 [Venetoclax] + CS(=O)(=O)CCNCc1ccc(-c2ccc3ncnc(Nc4ccc(OCc5cccc(F)c5)c(Cl)c4)c3c2)o1 [Lapatinib] (first compound max 1 µM, 7x7, partner max 10 µM) | -0.0254 | -0.0299 | -0.0478 | 0.0267 | -0.0428 | -0.0207 | -0.0049 | -0.0529
